What was measured:
Assay type in all cases: in vivo
[1] = tested on: redroot pigweed (Amaranthus retroflexus, AMARE); assay: Pre-emerge test, greenhouse herbicide activity screening; conditions: rating scale 0-100, 14 days after application
How it was run: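 Visual ratings on a 0-100 scale (0 no damage, 100 all plants dead) were taken at 14 days after treatment. Rates of 15-1000 g ai/ha in acetone, 187 l/ha, were sprayed onto soil one day after planting (pre-emerge) or onto 2-3 leaf plants with 0.25% v/v surfactant (post-emerge).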

[2] = tested on: upland rice (Oryza sp., var. Tebonnet, RICE); assay: Pre-emerge test, crop safety; conditions: rating scale 0-100, 14 days after application
How it was run: (§1)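 Fourteen days after spraying, crop and weed injury was graded visually from 0, no effect, to 100, every plant dead. Test substances were dissolved in acetone and applied at 15–1000 g ai/ha with a flat-fan nozzle. Application was either pre-emergence, one day after sowing, or post-emergence at the 2–3 leaf stage.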

[3] = tested on: field corn (Zea mays L., var. Dekalb 535, CORN); assay: Pre-emerge test, crop safety; conditions: rating scale 0-100, 14 days after application
How it was run: as §1

[4] = tested on: sicklepod (Cassia obtusifolia, CASOB); assay: Pre-emerge test, greenhouse herbicide activity screening; conditions: rating scale 0-100, 14 days after application
How it was run: (§2)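 Applied at 15–1000 g ai/ha from acetone in 187 l/ha spray volume. Post-emergence applications included 0.25% v/v non-ionic surfactant and reached plants sown 8–21 days before. Pre-emergence applications were incorporated by surface watering. Efficacy or crop damage was rated on a 0–100 scale after 14 days.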

[5] = tested on: barnyardgrass (Echinochloa crus-galli, ECHCG); assay: as above; conditions: rating scale 0-100, 14 days after application
How it was run: as §2

[6] = tested on: ivyleaf morningglory (Ipomoea hederacea, IPOHE); assay: as above; conditions: rating scale 0-100, 14 days after application
How it was run: as §2

[7] = tested on: velvetleaf (Abutilon theophrasti, ABUTH); assay: as above; conditions: rating scale 0-100, 14 days after application
How it was run: as §2

[8] = tested on: green foxtail (Setaria viridis, SETVI); assay: as above; conditions: rating scale 0-100, 14 days after application
How it was run: as §2

[9] = tested on: johnsongrass (Sorghum halepense, SORHA); assay: as above; conditions: rating scale 0-100, 14 days after application
How it was run: as §2

[10] = tested on: large crabgrass (Digitaria sanguinalis, DIGSA); assay: as above; conditions: rating scale 0-100, 14 days after application
How it was run: as §2

[11] = tested on: lambsquarters (Chenopodium album, CHEAL); assay: as above; conditions: rating scale 0-100, 14 days after application
How it was run: as §2

[12] = tested on: sicklepod (Cassia obtusifolia, CASOB); assay: Post-emerge test, greenhouse herbicide activity screening; conditions: rating scale 0-100 (0 no damage, 100 complete death), 14 days after application
How it was run: (§3)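 Compounds in acetone were track-sprayed at 15-1000 g ai/ha (187 l/ha) on sandy loam pots: pre-emerge one day after seeding, post-emerge at 2-3 leaf stage with 0.25% v/v non-ionic surfactant. Phytotoxicity was rated 14 days later on a 0 (no damage) to 100 (complete death) scale.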

[13] = tested on: barnyardgrass (Echinochloa crus-galli, ECHCG); assay: as above; conditions: rating scale 0-100 (0 no damage, 100 complete death), 14 days after application
How it was run: as §3

[14] = tested on: ivyleaf morningglory (Ipomoea hederacea, IPOHE); assay: as above; conditions: rating scale 0-100 (0 no damage, 100 complete death), 14 days after application
How it was run: as §3

[15] = tested on: velvetleaf (Abutilon theophrasti, ABUTH); assay: as above; conditions: rating scale 0-100 (0 no damage, 100 complete death), 14 days after application
How it was run: as §3

[16] = tested on: green foxtail (Setaria viridis, SETVI); assay: as above; conditions: rating scale 0-100 (0 no damage, 100 complete death), 14 days after application
How it was run: as §3

[17] = tested on: johnsongrass (Sorghum halepense, SORHA); assay: as above; conditions: rating scale 0-100 (0 no damage, 100 complete death), 14 days after application
How it was run: as §3

[18] = tested on: large crabgrass (Digitaria sanguinalis, DIGSA); assay: as above; conditions: rating scale 0-100 (0 no damage, 100 complete death), 14 days after application
How it was run: as §3

[19] = tested on: common ragweed (Ambrosia artemisizfolia L., AMBEL); assay: as above; conditions: rating scale 0-100 (0 no damage, 100 complete death), 14 days after application
How it was run: as §3

[20] = tested on: redroot pigweed (Amaranthus retroflexus, AMARE); assay: as above; conditions: rating scale 0-100 (0 no damage, 100 complete death), 14 days after application
How it was run: as §3

[21] = tested on: lambsquarters (Chenopodium album, CHEAL); assay: as above; conditions: rating scale 0-100 (0 no damage, 100 complete death), 14 days after application
How it was run: as §3

[22] = tested on: upland rice (Oryza sp., var. Tebonnet, RICE); assay: Post-emerge test, crop safety; conditions: rating scale 0-100 (0 no damage, 100 complete death), 14 days after application
How it was run: as §2

[23] = tested on: field corn (Zea mays L., var. Dekalb 535, CORN); assay: Post-emerge test, crop safety; conditions: rating scale 0-100 (0 no damage, 100 complete death), 14 days after application
How it was run: as §2

COc1c(Cl)cc(F)c(-n2c(=O)cc(C(F)(F)F)n(C)c2=O)c1CC(Cl)C(=O)OCC(F)(F)C(F)(F)C(F)(F)F (single isomer, unassigned) [14-24]
Pre-emerge herbicidal activity, phytotoxicity rating AMARE ([1]; 63 g ai/ha): 50
Pre-emerge herbicidal activity, phytotoxicity rating AMARE ([1]; 250 g ai/ha): 100
Pre-emerge phytotoxicity rating, crop damage RICE ([2]; 63 g ai/ha): 0
Pre-emerge phytotoxicity rating, crop damage RICE ([2]; 250 g ai/ha): 20
Pre-emerge phytotoxicity rating, crop damage CORN ([3]; 63 g ai/ha): 0
Pre-emerge phytotoxicity rating, crop damage CORN ([3]; 250 g ai/ha): 0
Pre-emerge herbicidal activity, phytotoxicity rating CASOB ([4]; 63 g ai/ha): 0
Pre-emerge herbicidal activity, phytotoxicity rating CASOB ([4]; 250 g ai/ha): 30
Pre-emerge herbicidal activity, phytotoxicity rating ECHCG ([5]; 63 g ai/ha): 0
Pre-emerge herbicidal activity, phytotoxicity rating ECHCG ([5]; 250 g ai/ha): 0
Pre-emerge herbicidal activity, phytotoxicity rating IPOHE ([6]; 63 g ai/ha): 0
Pre-emerge herbicidal activity, phytotoxicity rating IPOHE ([6]; 250 g ai/ha): 0
Pre-emerge herbicidal activity, phytotoxicity rating ABUTH ([7]; 63 g ai/ha): 0
Pre-emerge herbicidal activity, phytotoxicity rating ABUTH ([7]; 250 g ai/ha): 80
Pre-emerge herbicidal activity, phytotoxicity rating SETVI ([8]; 63 g ai/ha): 0
Pre-emerge herbicidal activity, phytotoxicity rating SETVI ([8]; 250 g ai/ha): 0
Pre-emerge herbicidal activity, phytotoxicity rating SORHA ([9]; 63 g ai/ha): 0
Pre-emerge herbicidal activity, phytotoxicity rating SORHA ([9]; 250 g ai/ha): 0
Pre-emerge herbicidal activity, phytotoxicity rating DIGSA ([10]; 63 g ai/ha): 20
Pre-emerge herbicidal activity, phytotoxicity rating DIGSA ([10]; 250 g ai/ha): 80
Pre-emerge herbicidal activity, phytotoxicity rating CHEAL ([11]; 63 g ai/ha): 0
Pre-emerge herbicidal activity, phytotoxicity rating CHEAL ([11]; 250 g ai/ha): 50
Post-emerge Herbicidal Activity, phytotoxicity rating CASOB ([12]; Rate 63 g ai/ha): 0
Post-emerge Herbicidal Activity, phytotoxicity rating CASOB ([12]; Rate 250 g ai/ha): 0
Post-emerge Herbicidal Activity, phytotoxicity rating ECHCG ([13]; Rate 63 g ai/ha): 100
Post-emerge Herbicidal Activity, phytotoxicity rating ECHCG ([13]; Rate 250 g ai/ha): 100
Post-emerge Herbicidal Activity, phytotoxicity rating IPOHE ([14]; Rate 63 g ai/ha): 20
Post-emerge Herbicidal Activity, phytotoxicity rating IPOHE ([14]; Rate 250 g ai/ha): 40
Post-emerge Herbicidal Activity, phytotoxicity rating ABUTH ([15]; Rate 63 g ai/ha): 70
Post-emerge Herbicidal Activity, phytotoxicity rating ABUTH ([15]; Rate 250 g ai/ha): 100
Post-emerge Herbicidal Activity, phytotoxicity rating SETVI ([16]; Rate 63 g ai/ha): 0
Post-emerge Herbicidal Activity, phytotoxicity rating SETVI ([16]; Rate 250 g ai/ha): 50
Post-emerge Herbicidal Activity, phytotoxicity rating SORHA ([17]; Rate 63 g ai/ha): 0
Post-emerge Herbicidal Activity, phytotoxicity rating SORHA ([17]; Rate 250 g ai/ha): 50
Post-emerge Herbicidal Activity, phytotoxicity rating DIGSA ([18]; Rate 63 g ai/ha): 95
Post-emerge Herbicidal Activity, phytotoxicity rating DIGSA ([18]; Rate 250 g ai/ha): 100
Post-emerge Herbicidal Activity, phytotoxicity rating AMBEL ([19]; Rate 63 g ai/ha): 50
Post-emerge Herbicidal Activity, phytotoxicity rating AMBEL ([19]; Rate 250 g ai/ha): 50
Post-emerge Herbicidal Activity, phytotoxicity rating AMARE ([20]; Rate 63 g ai/ha): 40
Post-emerge Herbicidal Activity, phytotoxicity rating AMARE ([20]; Rate 250 g ai/ha): 90
Post-emerge Herbicidal Activity, phytotoxicity rating CHEAL ([21]; Rate 63 g ai/ha): 80
Post-emerge Herbicidal Activity, phytotoxicity rating CHEAL ([21]; Rate 250 g ai/ha): 90
Post-emerge phytotoxicity rating RICE (crop damage) ([22]; Rate 63 g ai/ha): 10
Post-emerge phytotoxicity rating RICE (crop damage) ([22]; Rate 250 g ai/ha): 50
Post-emerge phytotoxicity rating CORN (crop damage) ([23]; Rate 63 g ai/ha): 10
Post-emerge phytotoxicity rating CORN (crop damage) ([23]; Rate 250 g ai/ha): 20

CCOC(=O)C(Br)Cc1c(OC)c(Cl)cc(F)c1-n1c(=O)cc(C(F)(F)F)n(C)c1=O (single isomer, unassigned) [14-32]
Pre-emerge herbicidal activity, phytotoxicity rating AMARE ([1]; 63 g ai/ha): 100
Pre-emerge herbicidal activity, phytotoxicity rating AMARE ([1]; 250 g ai/ha): 100
Pre-emerge phytotoxicity rating, crop damage RICE ([2]; 63 g ai/ha): 0
Pre-emerge phytotoxicity rating, crop damage RICE ([2]; 250 g ai/ha): 10
Pre-emerge phytotoxicity rating, crop damage CORN ([3]; 63 g ai/ha): 0
Pre-emerge phytotoxicity rating, crop damage CORN ([3]; 250 g ai/ha): 0
Pre-emerge herbicidal activity, phytotoxicity rating CASOB ([4]; 63 g ai/ha): 0
Pre-emerge herbicidal activity, phytotoxicity rating CASOB ([4]; 250 g ai/ha): 30
Pre-emerge herbicidal activity, phytotoxicity rating ECHCG ([5]; 63 g ai/ha): 0
Pre-emerge herbicidal activity, phytotoxicity rating ECHCG ([5]; 250 g ai/ha): 30
Pre-emerge herbicidal activity, phytotoxicity rating IPOHE ([6]; 63 g ai/ha): 0
Pre-emerge herbicidal activity, phytotoxicity rating IPOHE ([6]; 250 g ai/ha): 0
Pre-emerge herbicidal activity, phytotoxicity rating ABUTH ([7]; 63 g ai/ha): 10
Pre-emerge herbicidal activity, phytotoxicity rating ABUTH ([7]; 250 g ai/ha): 50
Pre-emerge herbicidal activity, phytotoxicity rating SETVI ([8]; 63 g ai/ha): 0
Pre-emerge herbicidal activity, phytotoxicity rating SETVI ([8]; 250 g ai/ha): 40
Pre-emerge herbicidal activity, phytotoxicity rating SORHA ([9]; 63 g ai/ha): 0
Pre-emerge herbicidal activity, phytotoxicity rating SORHA ([9]; 250 g ai/ha): 20
Pre-emerge herbicidal activity, phytotoxicity rating DIGSA ([10]; 63 g ai/ha): 20
Pre-emerge herbicidal activity, phytotoxicity rating DIGSA ([10]; 250 g ai/ha): 100
Pre-emerge herbicidal activity, phytotoxicity rating CHEAL ([11]; 63 g ai/ha): 80
Pre-emerge herbicidal activity, phytotoxicity rating CHEAL ([11]; 250 g ai/ha): 100
Post-emerge Herbicidal Activity, phytotoxicity rating CASOB ([12]; Rate 63 g ai/ha): 20
Post-emerge Herbicidal Activity, phytotoxicity rating CASOB ([12]; Rate 250 g ai/ha): 40
Post-emerge Herbicidal Activity, phytotoxicity rating ECHCG ([13]; Rate 63 g ai/ha): 100
Post-emerge Herbicidal Activity, phytotoxicity rating ECHCG ([13]; Rate 250 g ai/ha): 100
Post-emerge Herbicidal Activity, phytotoxicity rating IPOHE ([14]; Rate 63 g ai/ha): 0
Post-emerge Herbicidal Activity, phytotoxicity rating IPOHE ([14]; Rate 250 g ai/ha): 20
Post-emerge Herbicidal Activity, phytotoxicity rating ABUTH ([15]; Rate 63 g ai/ha): 90
Post-emerge Herbicidal Activity, phytotoxicity rating ABUTH ([15]; Rate 250 g ai/ha): 95
Post-emerge Herbicidal Activity, phytotoxicity rating SETVI ([16]; Rate 63 g ai/ha): 40
Post-emerge Herbicidal Activity, phytotoxicity rating SETVI ([16]; Rate 250 g ai/ha): 70
Post-emerge Herbicidal Activity, phytotoxicity rating SORHA ([17]; Rate 63 g ai/ha): 0
Post-emerge Herbicidal Activity, phytotoxicity rating SORHA ([17]; Rate 250 g ai/ha): 10
Post-emerge Herbicidal Activity, phytotoxicity rating DIGSA ([18]; Rate 63 g ai/ha): 70
Post-emerge Herbicidal Activity, phytotoxicity rating DIGSA ([18]; Rate 250 g ai/ha): 90
Post-emerge Herbicidal Activity, phytotoxicity rating AMBEL ([19]; Rate 63 g ai/ha): 40
Post-emerge Herbicidal Activity, phytotoxicity rating AMBEL ([19]; Rate 250 g ai/ha): 40
Post-emerge Herbicidal Activity, phytotoxicity rating AMARE ([20]; Rate 63 g ai/ha): 95
Post-emerge Herbicidal Activity, phytotoxicity rating AMARE ([20]; Rate 250 g ai/ha): 100
Post-emerge Herbicidal Activity, phytotoxicity rating CHEAL ([21]; Rate 63 g ai/ha): 0
Post-emerge Herbicidal Activity, phytotoxicity rating CHEAL ([21]; Rate 250 g ai/ha): 80
Post-emerge phytotoxicity rating RICE (crop damage) ([22]; Rate 63 g ai/ha): 0
Post-emerge phytotoxicity rating RICE (crop damage) ([22]; Rate 250 g ai/ha): 0
Post-emerge phytotoxicity rating CORN (crop damage) ([23]; Rate 63 g ai/ha): 0
Post-emerge phytotoxicity rating CORN (crop damage) ([23]; Rate 250 g ai/ha): 0

From patent US6355799B1, “Substituted benzene compounds, process for their preparation, and herbicidal and defoliant compositions containing them” (ISK Americas Incorporated, priority 1997, dated 2002)
